According to the supplement of paper PMC10307832:

Tests used:
Assay in all cases: relative viability (nuclei count vs DMSO), 5 days (fraction); higher = more cells survive
[1] = compound: O=C(/C=C/c1cccnc1)NCCCCC1CCN(C(=O)c2ccccc2)CC1 [Daporinad] + Cc1nc(Nc2ncc(C(=O)Nc3c(C)cccc3Cl)s2)cc(N2CCN(CCO)CC2)n1 [Dasatinib] (partner 0.075 µM)
How it was run: (§1)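 Cells from lung cancer lines were seeded into 1536-well plates and, one day later, dosed by pin tool. Treatments were either a single drug or a fixed dose of an anchor drug with five library-drug doses (not always all listed) in √10 steps. After 5 days, nuclei were stained in a one-step fixation (final 0.05% Triton X-100, 1% formaldehyde, 1 ug/ml Hoechst) and counted on 4× images, and relative viability is the treated-to-vehicle nuclei ratio, as the median of duplicate plates.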

[2] = compound: COc1cc(Nc2ncc(F)c(Nc3ccc4c(n3)NC(=O)C(C)(C)O4)n2)cc(OC)c1OC [R406] + CC(C)C[C@H](NC(=O)[C@H](Cc1ccccc1)NC(=O)c1cnccn1)B(O)O [Bortezomib] (partner 0.002 µM)
How it was run: as §1

[3] = compound: O=C(/C=C/c1cccnc1)NCCCCC1CCN(C(=O)c2ccccc2)CC1 [Daporinad] + CCNC(=O)c1noc(-c2cc(C(C)C)c(O)cc2O)c1-c1ccc(CN2CCOCC2)cc1 [Luminespib] (partner 0.01 µM)
How it was run: as §1

[4] = compound: COc1cc(Nc2ncc(F)c(Nc3ccc4c(n3)NC(=O)C(C)(C)O4)n2)cc(OC)c1OC [R406] + Nc1ncn([C@H]2C[C@H](O)[C@@H](CO)O2)c(=O)n1 [Decitabine] (partner 2 µM)
How it was run: as §1

| Cell Line | relative viability ([1]; first compound 0.0005 µM) | relative viability ([1]; first compound 0.001581 µM) | relative viability ([1]; first compound 0.005 µM) | relative viability ([1]; first compound 0.01581 µM) | relative viability ([2]; first compound 0.08 µM) | relative viability ([2]; first compound 0.253 µM) | relative viability ([2]; first compound 0.8 µM) | relative viability ([2]; first compound 2.53 µM) | relative viability ([2]; first compound 8 µM) | relative viability ([3]; first compound 0.0005 µM) | relative viability ([3]; first compound 0.001581 µM) | relative viability ([3]; first compound 0.005 µM) | relative viability ([3]; first compound 0.01581 µM) | relative viability ([4]; first compound 0.08 µM) | relative viability ([4]; first compound 0.253 µM) | relative viability ([4]; first compound 0.8 µM) | relative viability ([4]; first compound 2.53 µM) | relative viability ([4]; first compound 8 µM) |
| --- | --- | --- | --- | --- | --- | --- | --- | --- | --- | --- | --- | --- | --- | --- | --- | --- | --- | --- |
| NCI-H23 | 0.895 | 0.699 | 0.85 | 0.829 | 0.953 | 1.45 | 1.35 | 0.906 | 0.278 | 0.197 | 0.231 | 0.203 | 0.215 | 0.258 | 0.307 | 0.314 | 0.308 | 0.177 |
| NCI-H322M | 0.272 | 0.266 | 0.259 | 0.259 | 1.19 | 0.994 | 1.19 | 0.534 | 0.803 | 0.997 | 0.97 | 0.853 | 0.608 | 0.665 | 0.669 | 0.704 | 0.594 | 0.557 |
| NCI-H441 | 0.665 | 0.614 | 0.618 | 0.662 |  | 0.383 | 0.713 |  | 0.331 | 0.36 | 0.324 | 0.367 | 0.343 | 0.231 | 0.248 | 0.276 | 0.217 | 0.24 |
| NCI-H460 | 0.575 | 0.639 | 0.489 | 0.505 | 0.96 | 1.33 | 1.58 |  | 0.486 | 0.0254 | 0.0436 | 0.0289 | 0.0343 | 0.426 | 0.596 | 0.758 | 0.0438 | 0.354 |
| NCI-H520 | 0.248 | 0.227 | 0.162 | 0.182 | 0.604 | 0.804 | 0.971 | 0.209 | 0.157 | 0.235 | 0.193 | 0.197 | 0.195 | 0.455 | 0.684 | 0.53 | 0.302 | 0.158 |
| NCI-H596 | 0.68 | 0.677 | 0.692 | 0.576 | 1.1 | 1.28 | 0.758 | 0.984 | 0.475 | 0.919 | 1.04 | 1.05 | 0.479 | 0.88 | 0.994 | 1.01 | 0.91 | 0.372 |
| NCI-H647 | 0.146 | 0.27 | 0.282 | 0.196 | 0.89 | 1.02 | 1.59 | 0.0846 | 0.188 | 0.183 | 0.173 | 0.239 | 0.182 | 0.39 | 0.462 | 0.406 | 0.486 | 0.207 |
| NCI-H650 | 0.391 | 0.395 | 0.473 | 0.53 | 0.712 | 0.852 | 0.977 | 0.625 | 0.389 | 0.82 | 0.825 | 0.734 | 0.953 | 0.316 | 0.34 | 0.34 | 0.297 | 0.354 |
| NCI-H661 | 0.939 | 1 | 0.518 | 0.388 | 0.769 | 0.877 | 0.945 | 0.721 | 0.469 | 0.936 | 0.873 | 0.558 | 0.423 | 0.478 | 0.531 | 0.615 | 0.473 | 0.405 |
| NCI-H727 | 0.475 | 0.327 | 0.437 | 0.364 | 0.803 | 0.965 | 1.1 | 0.278 | 0.747 | 0.257 | 0.27 | 0.37 | 0.195 | 0.919 | 1.16 | 0.854 | 0.872 | 0.847 |
| NCI-H838 | 0.276 | 0.29 | 0.296 | 0.296 | 0.709 | 1.46 | 1.01 | 0.11 | 0.153 | 0.288 | 0.332 | 0.343 | 0.29 | 0.496 | 0.528 | 0.485 | 0.363 | 0.214 |
| NCI-H1355 | 0.664 | 0.674 | 0.671 | 0.761 | 1.23 | 1.29 | 1.44 | 1.02 | 0.957 | 0.79 | 0.793 | 0.752 | 0.81 | 0.335 | 0.348 | 0.377 | 0.345 | 0.367 |
| NCI-H1437 | 0.342 | 0.47 | 0.4 | 0.415 | 0.392 | 0.768 | 0.675 | 0.259 | 0.226 | 1.14 | 1.16 | 1.15 | 1.06 | 0.552 | 0.623 | 0.567 | 0.665 | 0.472 |
| NCI-H1650 | 0.379 | 0.366 | 0.325 | 0.247 | 0.244 | 0.214 | 0.18 | 0.208 | 0.197 | 0.187 | 0.182 | 0.182 | 0.196 | 0.475 | 0.407 | 0.359 | 0.413 | 0.411 |
| NCI-H1651 | 0.419 | 0.433 | 0.439 | 0.446 | 0.921 | 1.06 | 0.9 | 0.935 | 0.948 | 0.829 | 0.676 | 0.805 | 0.67 | 0.498 | 0.75 | 0.654 | 0.531 | 0.6 |
| NCI-H1666 | 0.746 | 0.871 | 0.674 | 0.721 | 0.803 | 1.03 | 0.853 | 0.336 | 0.617 | 1.01 | 0.985 | 1.07 | 1.03 | 0.672 | 0.792 | 0.637 | 0.936 | 0.74 |
| NCI-H1734 | 0.566 | 0.489 | 0.495 | 0.462 | 0.828 | 1.16 | 1.05 | 0.344 | 0.269 | 0.233 | 0.187 | 0.185 | 0.228 | 0.521 | 0.524 | 0.551 | 0.404 | 0.399 |
| NCI-H1755 | 0.414 | 0.435 | 0.388 | 0.408 | 0.994 | 1 | 0.974 | 0.748 | 0.571 | 0.31 | 0.381 | 0.541 | 0.488 | 0.652 | 0.707 | 0.676 | 0.733 | 0.679 |
